Experimental data taken from patent US20050026270A1 (University of Maryland, priority 1999, published 2005).

Assays:
[1] = Stability of subtilin: activity retained after storage or exposure to light
[2] = 120 h

Substance	loss of activity on exposure to light ([1]; exposure to light)	loss of activity on storage ([1]; stored at 4° C. or 20° C.)	activity remaining after storage [2]
subtilin	rapid loss of activity	loses activity rapidly	–
subtilin [stable subtilin]	–	–	greater than 50%
